Reference: patent publication US5229409A, “6-substituted-tetrahydrobenz[cd]indoles” (Eli Lilly and Company, priority 1991, dated 1993)

Key:
serotonin = assay: whole brain serotonin concentration in vivo in rats; set-up: species or system rat (male albino); conditions: 1 hour
Protocol: (§1) In another experiment certain compounds of the Examples were evaluated to determine ability to affect the 5-hydroxyindoles serotonin and 5-hydroxyindole acetic acid (5HIAA), and serum corticosterone, in vivo. Male albino rats were injected subcutaneously with an aqueous solution of the compound. The pH of the solution was adjusted as necessary to solubilize the compound. A control of the solution without the test compound was similarly injected into a control animal. The rats were decapitated one hour later. Trunk blood was collected and allowed to clot. After centrifugation, serum was stored frozen prior to analysis. The whole brain was removed and frozen on dry ice for storage prior to analysis. The serum corticosterone concentration was measured spectrofluorometrically using the procedure of Solem and Brinck-Johnson, "An Evaluation of a Method for Determination of Free Corticosteroids in Minute Quantities of Mouse Plasma", Scand. J. Clin. Lab. Invest., Suppl. 80, p. 1-14 (1965), incorporated herein by reference. 5-Hydroxyindoleacetic acid (5HIAA) concentration in whole brain was measured by liquid chromatography with electrochemical detection as reported by Fuller and Perry, "Effects of Buspirone and its Metabolite, 1-(2-pyrimidinyl)piperazine, on Brain Monoamines and Their Metabolites in Rats", J. Pharmacol. Exp. Ther., 248, p. 50-56 (1989), incorporated herein by reference.

5-HT1D receptor = target: T1, 5-HT1D receptor (Bos taurus, UniProt F1MGM3); assay: [3H]5-HT binding to 5-HT1D sites in caudate nuclei membranes; conditions: bovine caudate membranes, [3H]5-HT 1.7-1.9 nM, pH 7.4, 37° C
T1 construct: the caudate nuclei were dissected out and frozen at -70° C; tissue Pel-Freeze Biologicals; host or cells: bovine caudate nuclei, washed membranes
T1 sequence (F1MGM3 1-403): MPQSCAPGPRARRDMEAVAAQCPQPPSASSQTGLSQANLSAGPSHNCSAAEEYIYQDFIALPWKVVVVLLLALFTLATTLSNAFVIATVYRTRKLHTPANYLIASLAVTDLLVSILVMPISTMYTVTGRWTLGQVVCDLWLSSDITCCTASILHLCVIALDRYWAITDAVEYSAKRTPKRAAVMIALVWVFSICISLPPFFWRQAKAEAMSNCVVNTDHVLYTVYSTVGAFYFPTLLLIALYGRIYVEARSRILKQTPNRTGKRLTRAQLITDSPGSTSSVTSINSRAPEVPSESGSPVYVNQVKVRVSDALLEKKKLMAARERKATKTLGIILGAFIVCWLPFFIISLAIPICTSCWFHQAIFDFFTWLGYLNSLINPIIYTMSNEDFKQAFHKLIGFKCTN
Protocol: The affinities of the compounds at the central 5-HT1D binding sites were determined using a modification of the binding assay described by Heuring and Peroutka (J. Neurosci. 7:894-903, 1987). Bovine brains were obtained from Pel-Freeze Biologicals, and the caudate nuclei were dissected out and frozen at -70° C. until the time that the membranes were prepared for the binding assays. At that time the tissues were homogenized in 40 volumes of ice-cold Tris-HCl buffer (50 mM, pH 7.4 at 22° C.) with a Techmar Tissumizer (setting 65 for 15 sec), and the homogenate was centrifuged at 39,800 g for 10 min. The resulting pellet was then resuspended in the same buffer, and the centrifugation and resuspension process was repeated three additional times to wash the membranes. Between the second and third washes the resuspended membranes were incubated for 10 min at 37° C. to facilitate the removal of endogenous 5-HT. the final pellet was resuspended in Tris buffer to a concentration of 25 mg of original tissue wet weight/ml for use in the binding assay. […] The assay tubes were incubated for 10 min at 37° C., and the contents were then rapidly filtered through GF/B filters (pretreated with 0.5% polyethylenimine), followed by four one-mL washes with ice-cold buffer. The radioactivity trapped by the filters was quantitated by liquid scintillation spectrometry, and specific [^3 H]5-HT binding to the 5HT1D sites were defined as the difference between [^3 H]5-HT bound in the presence and absence of 10 μM 5-HT.
The affinities of compounds at the 5-HT1D receptor are expressed as IC50 values, i.e., the concentration required to inhibit 50% of the binding. These values were determined from 12-point competition curves using nonlinear regression (SYSTAT, SYSTAT, Inc. Evanston, Ill.).

[1] = test system: 5-hydroxyindole acetic acid (5HIAA); assay: whole brain 5-hydroxyindoleacetic acid (5HIAA) concentration in vivo in rats; set-up: species or system rat (male albino)
Protocol: as §1, with “The rats were decapitated one hour later.” left out

serum corticosterone = serum corticosterone concentration in vivo in rats; set-up: species or system rat (male albino); conditions: 1 hour
Protocol: as §1

[2] = 0.0003 mg/kg s.c., series 0.0003-0.03 mg/kg
[3] = 0.003 mg/kg s.c., series 0.0003-0.03 mg/kg
[4] = 0.03 mg/kg s.c., series 0.0003-0.03 mg/kg
[5] = 0.03 mg/kg s.c., series 0.03-3 mg/kg
[6] = 0.3 mg/kg s.c., series 0.03-3 mg/kg
[7] = 3 mg/kg s.c., series 0.03-3 mg/kg
[8] = 0.0003 mg/kg s.c., 1 hour, series 0.0003-0.03 mg/kg
[9] = 0.003 mg/kg s.c., 1 hour, series 0.0003-0.03 mg/kg
[10] = 0.03 mg/kg s.c., 1 hour, series 0.0003-0.03 mg/kg
[11] = 0.03 mg/kg s.c., 1 hour, series 0.03-3 mg/kg
[12] = 0.3 mg/kg s.c., 1 hour, series 0.03-3 mg/kg
[13] = 3 mg/kg s.c., 1 hour, series 0.03-3 mg/kg

Row | Structure (SMILES) | Serotonin (serotonin; [2]) [nmol/g] | Serotonin (serotonin; [3]) [nmol/g] | Serotonin (serotonin; [4]) [nmol/g] | Serotonin (serotonin; [5]) [nmol/g] | Serotonin (serotonin; [6]) [nmol/g] | Serotonin (serotonin; [7]) [nmol/g] | IC50 (5-HT1D receptor) [nM] | 5HIAA [1, 8] [nmol/g] | 5HIAA [1, 9] [nmol/g] | 5HIAA [1, 10] [nmol/g] | 5HIAA [1, 11] [nmol/g] | 5HIAA [1, 12] [nmol/g] | 5HIAA [1, 13] [nmol/g] | Serum Corticosterone (serum corticosterone; [2]) [microg./100 ml] | Serum Corticosterone (serum corticosterone; [3]) [microg./100 ml] | Serum Corticosterone (serum corticosterone; [4]) [microg./100 ml] | Serum Corticosterone (serum corticosterone; [5]) [microg./100 ml] | Serum Corticosterone (serum corticosterone; [6]) [microg./100 ml] | Serum Corticosterone (serum corticosterone; [7]) [microg./100 ml] | also measured
1 | CCCN(CCC)C1Cc2c[nH]c3ccc(C(C)=O)c(c23)C1 (racemic) [Example 2, (±)-6-Acetyl-4-(di-n-propylamino)-1,3,4,5-tetrahydrobenz[cd]indole] | 2.71 ± 0.06 | 2.64 ± 0.11 | 3.23 ± 0.11 | 2.60 ± 0.09 | 2.54 ± 0.14 | 3.25 ± 0.01 | 18.4 | 2.21 ± 0.05 | 1.79 ± 0.10 | 1.95 ± 0.04 | 1.27 ± 0.01 | 1.10 ± 0.06 | 2.04 ± 0.02 | 3.8 ± 0.5 | 3.6 ± 0.1 | 36.7 ± 1.2 | 33.4 ± 3.7 | 39.1 ± 1.1 | 13.8 ± 0.6 | –
2 | CCCN(CCC)[C@H]1Cc2c[nH]c3ccc(C(C)=O)c(c23)C1 [Example 7, (4R)-(+)-6-acetyl-4-(di-n-propylamino)-1,3,4,5-tetrahydrobenz[cd]indole] | 2.68 ± 0.11 | 2.74 ± 0.07 | 3.00 ± 0.10 | 2.47 ± 0.07 | 2.59 ± 0.14 | – | 7.46 | 1.93 ± 0.07 | 1.80 ± 0.05 | 1.34 ± 0.07 | 1.43 ± 0.02 | 1.37 ± 0.07 | – | 4.1 ± 0.6 | 3.6 ± 0.1 | 21.8 ± 2.1 | 41.8 ± 1.7 | 41.5 ± 5.3 | – | –
3 | CCCN(CCC)[C@@H]1Cc2c[nH]c3ccc(C(C)=O)c(c23)C1 [Example 8, (4S)-(-)-6-acetyl-4-(di-n-propylamino)-1,3,4,5-tetrahydrobenz[cd]indole] | 2.91 ± 0.12 | 2.65 ± 0.13 | 3.30 ± 0.09 | 2.58 ± 0.15 | 2.78 ± 0.13 | 2.63 ± 0.12 | 96.4 | 1.91 ± 0.08 | 1.47 ± 0.04 | 1.59 ± 0.10 | 1.31 ± 0.06 | 1.36 ± 0.04 | 1.35 ± 0.04 | 3.4 ± 0.2 | 3.8 ± 0.2 | 40.3 ± 1.8 | 47.0 ± 2.4 | 47.3 ± 2.3 | 45.4 ± 1.3 | 5HIAA ([1]; 0.1 mg/kg orally, 5 hrs before sacrifice): 1.67 ± 0.04 nmol/g; 5HIAA ([1]; 0.3 mg/kg orally, 5 hrs before sacrifice): 1.60 ± 0.07 nmol/g; 5HIAA ([1]; 1 mg/kg orally, 5 hrs before sacrifice): 1.74 ± 0.05 nmol/g; 5HIAA ([1]; 3 mg/kg orally, 5 hrs before sacrifice): 1.31 ± 0.08 nmol/g
4 | CCCN(CCC)[C@H]1Cc2c[nH]c3ccc(C(=O)C(C)C)c(c23)C1 [Example 9, (4R)-(+)-6-(2-methylpropanoyl)-4-(di-n-propylamino)-1,3,4,5-tetrahydrobenz[cd]indole] | 2.76 ± 0.10 | 2.94 ± 0.11 | 3.08 ± 0.11 | 2.56 ± 0.07 | 2.94 ± 0.13 | 2.65 ± 0.07 | 1.27 | 2.44 ± 0.06 | 2.23 ± 0.09 | 1.82 ± 0.08 | 1.38 ± 0.02 | 1.22 ± 0.04 | 1.38 ± 0.08 | 4.1 ± 0.5 | 6.0 ± 1.3 | 9.1 ± 1.2 | 7.7 ± 1.8 | 40.8 ± 2.0 | 30.8 ± 4.5 | –
